Laboratory results from patent publication US20130231303A1, “5-HALOGENOPYRAZOLE(THIO)CARBOXAMIDES” (Bayer Intellectual Property GmbH, priority 2010, published 2013).

Columns and labels:
[1] = tested on: Pyrenophora teres; assay: Pyrenophora test (barley)/preventive; format: in vivo; details: preventive, 500 ppm, evaluated 7-9 days after inoculation
Experimental: (§1) The plants remain for 48 hours in an incubation cabinet at 22° C. and a relative atmospheric humidity of 100%. Then the plants are placed in a greenhouse at a temperature of approximately 20° C. and a relative atmospheric humidity of approximately 80%.

[2] = logP by HPLC on reversed-phase column (EEC Directive 79/831 Annex V.A8); format: physicochemical; details: HPLC, reversed-phase C 18, 40° C., 0.1% aqueous formic acid and acetonitrile gradient
Experimental: In table 1, the logP values were determined in accordance with EEC Directive 79/831 Annex V.A8 by HPLC (High Performance Liquid Chromatography) on a reversed-phase column (C 18), using the method described below: Temperature: 40° C.; Mobile phases: 0.1% aqueous formic acid and acetonitrile; linear gradient from 10% acetonitrile to 90% acetonitrile. Calibration was carried out using unbranched alkan-2-ones (comprising 3 to 16 carbon atoms) with known logP values (determination of the logP values by the retention times using linear interpolation between two successive alkanones). lambda-max-values were determined using UV-spectra from 200 nm to 400 nm and the peak values of the chromatographic signals.

[3] = tested on: Alternaria solani; assay: Alternaria test (tomato)/preventive; format: in vivo; details: preventive, 500 ppm, evaluated 7 days after inoculation
Experimental: The plants remain for one day in an incubation cabinet at approximately 22° C. and a relative atmospheric humidity of 100%. Then the plants are placed in an incubation cabinet at approximately 20° C. and a relative atmospheric humidity of 96%.

[4] = tested on: Blumeria graminis f.sp. hordei; assay: Blumeria test (barley)/preventive; format: in vivo; details: preventive, 500 ppm, evaluated 7 days after inoculation
Experimental: After the spray coating has been dried, the plants are dusted with spores of Blumeria graminis f.sp. hordei. The plants are placed in the greenhouse at a temperature of approximately 18° C. and a relative atmospheric humidity of approximately 80% to promote the development of mildew pustules.

[5] = tested on: Puccinia recondita; assay: Puccinia test (wheat)/preventive; format: in vivo; details: preventive, 500 ppm, evaluated 7-9 days after inoculation
Experimental: as §1

[6] = tested on: Fusarium nivale (var. majus); assay: Fusarium nivale (var. majus)-test (wheat)/preventive; format: in vivo; details: preventive; for Efficacy: evaluated 5 days after inoculation; for protection: dose of 250 ppm and 500 ppm (text summary of table G2)
Experimental: After the spray coating has been dried, the plants are slightly injured by using a sandblast and afterwards they are sprayed with a conidia suspension of Fusarium nivale (var. majus). The plants are placed in the greenhouse under a translucent incubation cabinet at a temperature of approximately 10° C. and a relative atmospheric humidity of approximately 100%.

[7] = tested on: Sphaerotheca fuliginea; assay: Sphaerotheca test (cucumber)/preventive; format: in vivo; details: preventive, 500 ppm, evaluated 7 days after inoculation
Experimental: Then the plants are placed in a greenhouse at approximately 23° C. and a relative atmospheric humidity of approximately 70%.

[8] = tested on: Botrytis cinerea; assay: Botrytis test (beans)/preventive; format: in vivo; details: preventive, 100 ppm, lesion size 2 days after inoculation
Experimental: Botrytis Test (Beans)/Preventive
• Solvent: 24.5 parts by weight of acetone • 24.5 parts by weight of N,N-dimethylformamide • Emulsifier: 1 part by weight of alkylaryl polyglycol ether
After the spray coating has dried on, 2 small pieces of agar covered with growth of Botrytis cinerea are placed on each leaf. The inoculated plants are placed in a darkened chamber at 20° C. and a relative atmospheric humidity of 100%.
2 days after the inoculation, the size of the lesions on the leaves is evaluated.

[9] = tested on: Uromyces appendiculatus; assay: Uromyces test (beans)/preventive; format: in vivo; details: preventive, 100 ppm, evaluated 10 days after inoculation
Text: Uromyces Test (Beans)/Preventive

[10] = tested on: Venturia inaequalis; assay: Venturia test (apples)/preventive; format: in vivo; details: preventive, 100 ppm, evaluated 10 days after inoculation
Experimental: Venturia Test (Apples)/Preventive […] After the spray coating has dried on, the plants are inoculated with an aqueous conidia suspension of the causal agent of apple scab (Venturia inaequalis) and then remain for 1 day in an incubation cabinet at approximately 20° C. and a relative atmospheric humidity of 100%.

[11] = tested on: Phakopsora pachyrhizi; assay: Phakopsora test (soybeans)/protective; format: in vivo; details: protective, 250 ppm, evaluated 11 days after inoculation
Text: Phakopsora Test (Soybeans)/Protective

[12] = tested on: Cochliobolus miyabeanus; assay: Cochliobolus test (rice)/protective; details: protective, 250 ppm, evaluated 4 days after inoculation
Experimental: • Solvent: 28.5 parts by weight of acetone • Emulsifier: 1.5 part by weight of alkylaryl polyglycol ether
1 day after the treatment, the plants are inoculated with an aqueous spore suspension of Cochliobolus miyabeanus. The plants are then placed in a greenhouse at a relative atmospheric humidity of 100% and a temperature of 25° C.
Evaluation is carried out 4 days after the inoculation.

[13] = tested on: Pyricularia oryzae; format: in vivo; details: rice, protective, 250 ppm, evaluated 5 days after inoculation
[14] = tested on: Rhizoctonia solani; assay: Rhizoctonia test (rice)/protective; format: in vivo; details: protective, 250 ppm, evaluated 4 days after inoculation
Text: Rhizoctonia Test (Rice)/Protective

Structure (SMILES)	Efficacy [1] [%]	logP [2]	Efficacy [3] [%]	Efficacy [4] [%]	Efficacy [5] [%]	Efficacy ([6]; 500 ppm) [%]	Efficacy [7] [%]	Efficacy [8] [%]	Efficacy [9] [%]	Efficacy [10] [%]	Efficacy ([6]; 250 ppm) [%]	protection [6]	Efficacy [11] [%]	Efficacy [12] [%]	Efficacy [13] [%]	Efficacy [14] [%]
CC(C)CCc1sccc1NC(=O)c1c(C(F)F)nn(C)c1Cl [Example 1]	100	3.74	100	94	95	80	–	–	–	–	–	–	–	–	–	–
Cn1nc(C(F)F)c(C(=O)Nc2ccsc2CCC(C)(C)C)c1Cl [Example 6]	100	4.01	95	94	100	100	89	–	–	–	–	–	–	–	–	–
CC(CC(C)(C)C)c1sccc1NC(=O)c1c(C(F)F)nn(C)c1Cl (centres unmarked) [Example 17]	94	4.29	94	–	100	–	100	–	–	–	–	–	–	–	–	–
Cn1nc(C(F)F)c(C(=O)Nc2ccsc2CC2CCCCC2)c1Cl [Example 12]	100	4.27	100	94	95	–	–	–	–	–	–	–	–	–	–	–
Cn1nc(C(F)F)c(C(=O)Nc2ccsc2CC[Si](C)(C)C)c1F [Example 19]	100	4.06	90	100	100	100	100	100	100	99	–	–	–	–	–	–
CC(C)CCC(C)c1sccc1NC(=O)c1c(C(F)F)nn(C)c1Cl (centres unmarked) [Example 16]	94	4.45	88	–	100	–	–	–	–	–	–	–	–	–	–	–
CC(C)CC(C)c1sccc1NC(=O)c1cn(C)nc1C(F)(F)F (centres unmarked) [Example 1.13 from EP-0737682, 1-methyl-N-[2-(4-methylpentan-2-yl)-3-thienyl]-3-(trifluoromethyl)-1H-pyrazole-4-carboxamide, reference compound]	–	–	–	–	–	43	–	–	–	–	14	less than 50%	–	–	–	–
CCC(C)=C(C)c1sccc1NC(=O)c1c(C(F)F)nn(C)c1Cl [Example 28]	100	4.23	94	–	80	–	–	–	–	–	–	–	–	–	–	–
CCCCC(C)c1sccc1NC(=O)c1c(C(F)F)nn(C)c1Cl (centres unmarked) [Example 7]	95	4.25	–	–	100	90	–	–	–	–	–	–	–	–	–	–
CC(C)CC(C)c1sccc1NC(=O)c1c(C(F)F)nn(C)c1F (centres unmarked) [Example 4]	100	3.94	100	100	100	–	100	97	100	100	–	–	99	–	–	–
CCC(CC(C)C)c1sccc1NC(=O)c1c(C(F)F)nn(C)c1Cl (centres unmarked) [Example 15]	100	4.46	88	94	90	–	–	–	–	–	–	–	–	–	–	–
CC(C)CC(C)c1sccc1NC(=O)c1c(C(F)F)nn(C)c1Cl (centres unmarked) [Example 3]	100	4.19	100	100	100	100	96	98	100	100	86	at least 80%	98	97	97	100
CCC(C)C(C)Cc1sccc1NC(=O)c1c(C(F)F)nn(C)c1Cl (centres unmarked) [Example 13]	100	4.41	95	100	90	100	–	–	–	–	–	–	–	–	–	–
Cn1nc(C(F)F)c(C(=O)Nc2ccsc2CC[Si](C)(C)C)c1Cl [Example 18]	100	4.30	80	92	100	100	98	91	100	94	–	–	–	–	–	–
